Measurements published in ChEMBL document CHEMBL3792297, “Studies on phenothiazines: New microtubule-interacting compounds with phenothiazine A-ring as potent antineoplastic agents” (Bioorg Med Chem, 2016).

Tests used:
Type in all cases: functional
[1] = Growth inhibition of human HCC2998 cells at 10 uM after 48 hrs by SRB assay relative to control; conditions: HCC 2998, 48 h, read-out: GI
[2] = Growth inhibition of human LOXIMVI cells at 10 uM after 48 hrs by SRB assay relative to control; conditions: LOX IMVI, read-out: GI
[3] = Growth inhibition of human UACC257 cells at 10 uM after 48 hrs by SRB assay relative to control; conditions: UACC-257, 48 h, read-out: GI
[4] = Growth inhibition of human OVCAR4 cells at 10 uM after 48 hrs by SRB assay relative to control; conditions: OVCAR-4, 48 h, read-out: GI
[5] = Growth inhibition of human OVCAR5 cells at 10 uM after 48 hrs by SRB assay relative to control; conditions: OVCAR-5, 48 h, read-out: GI
[6] = Growth inhibition of human NCI-ADR-RES cells at 10 uM after 48 hrs by SRB assay relative to control; conditions: read-out: GI
[7] = Growth inhibition of human IGROV1 cells at 10 uM after 48 hrs by SRB assay relative to control; conditions: IGROV-1, 48 h, read-out: GI
ACHN [8] = assay: Growth inhibition of human ACHN cells at 10 uM after 48 hrs by SRB assay relative to control; conditions: read-out: GI
[9] = Growth inhibition of human DU145 cells at 10 uM after 48 hrs by SRB assay relative to control; conditions: DU-145, 48 h, read-out: GI
[10] = Growth inhibition of human PC3 cells at 10 uM after 48 hrs by SRB assay relative to control; conditions: PC-3, 48 h, read-out: GI
[11] = Growth inhibition of human SF295 cells at 10 uM after 48 hrs by SRB assay relative to control; conditions: SF-295, 48 h, read-out: GI
[12] = Growth inhibition of human SF539 cells at 10 uM after 48 hrs by SRB assay relative to control; conditions: SF-539, 48 h, read-out: GI
[13] = Growth inhibition of human SNB19 cells at 10 uM after 48 hrs by SRB assay relative to control; conditions: SNB-19, 48 h, read-out: GI
[14] = Growth inhibition of human SNB75 cells at 10 uM after 48 hrs by SRB assay relative to control; conditions: SNB-75, 48 h, read-out: GI
MCF7 = assay: Growth inhibition of human MCF7 cells at 10 uM after 48 hrs by SRB assay relative to control; conditions: MCF7, 48 h, read-out: GI
A549 = assay: Growth inhibition of human A549 cells at 10 uM after 48 hrs by SRB assay relative to control; conditions: A549, 48 h, read-out: GI
NCI-H322M = assay: Growth inhibition of human NCI-H322M cells at 10 uM after 48 hrs by SRB assay relative to control; conditions: read-out: GI
NCI-H460 [15] = assay: Growth inhibition of human NCI-H460 cells at 10 uM after 48 hrs by SRB assay relative to control; conditions: NCI-H460, 48 h, read-out: GI
NCI-H522 = assay: Growth inhibition of human NCI-H522 cells at 10 uM after 48 hrs by SRB assay relative to control; conditions: NCI-H522, 48 h, read-out: GI
[16] = Growth inhibition of human COLO205 cells at 10 uM after 48 hrs by SRB assay relative to control; conditions: COLO 205, 48 h, read-out: GI
MDA-MB-231 = assay: Growth inhibition of human MDA-MB-231 cells at 10 uM after 48 hrs by SRB assay relative to control; conditions: MDA-MB-231, 48 h, read-out: GI
T47D = assay: Growth inhibition of human T47D cells at 10 uM after 48 hrs by SRB assay relative to control; conditions: read-out: GI
CCRF-CEM = assay: Growth inhibition of human CCRF-CEM cells after 48 hrs by SRB assay
[17] = Growth inhibition of human HL-60(TB) cells after 48 hrs by SRB assay; conditions: HL-60, 48 h
[18] = Growth inhibition of human HOP92 cells after 48 hrs by SRB assay; conditions: HOP-92, 48 h
NCI-H23 = assay: Growth inhibition of human NCI-H23 cells after 48 hrs by SRB assay; conditions: NCI-H23, 48 h
NCI-H460 [19] = assay: Growth inhibition of human NCI-H460 cells after 48 hrs by SRB assay; conditions: NCI-H460, 48 h
[20] = Growth inhibition of human COLO205 cells after 48 hrs by SRB assay; conditions: COLO 205, 48 h
[21] = Growth inhibition of human HCT15 cells after 48 hrs by SRB assay; conditions: HCT-15, 48 h
KM12 = assay: Growth inhibition of human KM12 cells after 48 hrs by SRB assay; conditions: KM12, 48 h
M14 = assay: Growth inhibition of human M14 cells after 48 hrs by SRB assay; conditions: M14, 48 h
SK-MEL-2 = assay: Growth inhibition of human SK-MEL-2 cells after 48 hrs by SRB assay; conditions: SK-MEL-2, 48 h
SK-MEL-28 = assay: Growth inhibition of human SK-MEL-28 cells after 48 hrs by SRB assay; conditions: SK-MEL-28, 48 h
[22] = Growth inhibition of human LOXIMVI cells after 48 hrs by SRB assay; conditions: LOX IMVI
[23] = Growth inhibition of human OVCAR3 cells after 48 hrs by SRB assay; conditions: OVCAR-3, 48 h
[24] = Growth inhibition of human OVCAR4 cells after 48 hrs by SRB assay; conditions: OVCAR-4, 48 h
[25] = Growth inhibition of human OVCAR5 cells after 48 hrs by SRB assay; conditions: OVCAR-5, 48 h
[26] = Growth inhibition of human SKOV3 cells after 48 hrs by SRB assay; conditions: SK-OV-3, 48 h
[27] = Growth inhibition of human IGROV1 cells after 48 hrs by SRB assay; conditions: IGROV-1, 48 h
[28] = Growth inhibition of human Caki1 cells after 48 hrs by SRB assay; conditions: CAKI-1, 48 h
[29] = Growth inhibition of human UO31 cells after 48 hrs by SRB assay; conditions: UO-31, 48 h
ACHN [30] = assay: Growth inhibition of human ACHN cells after 48 hrs by SRB assay
[31] = Growth inhibition of human DU145 cells after 48 hrs by SRB assay; conditions: DU-145, 48 h
[32] = Growth inhibition of human SF539 cells after 48 hrs by SRB assay; conditions: SF-539, 48 h
[33] = Growth inhibition of human Hs 578T cells after 48 hrs by SRB assay

Compound: O/N=C(/c1ccc2c(c1)Sc1ccccc1N2)c1c[nH]c2ccccc12
- inhibition of growth at 10 µM [1]: 5%
- inhibition of growth at 10 µM [2]: 44%
- inhibition of growth at 10 µM [3]: 18%
- inhibition of growth at 10 µM [4]: 26%
- inhibition of growth at 10 µM [5]: 31%
- inhibition of growth at 10 µM [6]: 80%
- inhibition of growth at 10 µM [7]: 44%
- inhibition of growth at 10 µM (ACHN [8]): 17%
- inhibition of growth at 10 µM [9]: 41%
- inhibition of growth at 10 µM [10]: 72%
- inhibition of growth at 10 µM [11]: 55%
- inhibition of growth at 10 µM [12]: 29%
- inhibition of growth at 10 µM [13]: 40%
- inhibition of growth at 10 µM [14]: 47%
- inhibition of growth at 10 µM (MCF7): 57%
- inhibition of growth at 10 µM (A549): 48%
- inhibition of growth at 10 µM (NCI-H322M): 26%
- inhibition of growth at 10 µM (NCI-H460 [15]): 82%
- inhibition of growth at 10 µM (NCI-H522): 100%
- inhibition of growth at 10 µM [16]: 45%

Compound: COc1ccc(C(=O)c2ccc3c(c2)Sc2ccccc2N3C)cc1F
- inhibition of growth at 10 µM [1]: 5%
- inhibition of growth at 10 µM [2]: 21%
- inhibition of growth at 10 µM [3]: 8%
- inhibition of growth at 10 µM [4]: 10%
- inhibition of growth at 10 µM [5]: 12%
- inhibition of growth at 10 µM [6]: 32%
- inhibition of growth at 10 µM [7]: 7%
- inhibition of growth at 10 µM (ACHN [8]): 0%
- inhibition of growth at 10 µM [9]: 0%
- inhibition of growth at 10 µM [10]: 21%
- inhibition of growth at 10 µM [11]: 16%
- inhibition of growth at 10 µM [12]: 19%
- inhibition of growth at 10 µM [13]: 15%
- inhibition of growth at 10 µM [14]: 1%
- inhibition of growth at 10 µM (MCF7): 37%
- inhibition of growth at 10 µM (A549): 44%
- inhibition of growth at 10 µM (NCI-H322M): 5%
- inhibition of growth at 10 µM (NCI-H460 [15]): 13%
- inhibition of growth at 10 µM (NCI-H522): 22%
- inhibition of growth at 10 µM [16]: 34%

Compound: O=C(c1ccc(F)c(Cl)c1)N1c2ccccc2Sc2ccccc21
- inhibition of growth at 10 µM [1]: 38%
- inhibition of growth at 10 µM [2]: 59%
- inhibition of growth at 10 µM [3]: 39%
- inhibition of growth at 10 µM [4]: 20%
- inhibition of growth at 10 µM [5]: 13%
- inhibition of growth at 10 µM [6]: 60%
- inhibition of growth at 10 µM [7]: 29%
- inhibition of growth at 10 µM (ACHN [8]): 0%
- inhibition of growth at 10 µM [9]: 10%
- inhibition of growth at 10 µM [10]: 60%
- inhibition of growth at 10 µM [11]: 36%
- inhibition of growth at 10 µM [12]: 38%
- inhibition of growth at 10 µM [13]: 23%
- inhibition of growth at 10 µM [14]: 31%
- inhibition of growth at 10 µM (MCF7): 49%
- inhibition of growth at 10 µM (MDA-MB-231): 39%
- inhibition of growth at 10 µM (T47D): 39%
- inhibition of growth at 10 µM (A549): 34%
- inhibition of growth at 10 µM (NCI-H322M): 0%
- inhibition of growth at 10 µM (NCI-H460 [15]): 1%
- inhibition of growth at 10 µM (NCI-H522): 57%
- inhibition of growth at 10 µM [16]: 55%

Compound: COc1ccc(C(=O)N2c3ccccc3Sc3ccccc32)cc1F
- inhibition of growth at 10 µM [1]: 82%
- inhibition of growth at 10 µM [2]: 64%
- inhibition of growth at 10 µM [3]: 50%
- inhibition of growth at 10 µM [4]: 59%
- inhibition of growth at 10 µM [5]: 57%
- inhibition of growth at 10 µM [6]: 100%
- inhibition of growth at 10 µM [7]: 70%
- inhibition of growth at 10 µM (ACHN [8]): 50%
- inhibition of growth at 10 µM [9]: 95%
- inhibition of growth at 10 µM [10]: 71%
- inhibition of growth at 10 µM [11]: 89%
- inhibition of growth at 10 µM [12]: 91%
- inhibition of growth at 10 µM [13]: 45%
- inhibition of growth at 10 µM [14]: 81%
- inhibition of growth at 10 µM (MCF7): 82%
- inhibition of growth at 10 µM (MDA-MB-231): 69%
- inhibition of growth at 10 µM (T47D): 49%
- GI50 (CCRF-CEM): 287 nM
- GI50 [17]: 305 nM
- GI50 [18]: 1130 nM
- GI50 (NCI-H23): 340 nM
- GI50 (NCI-H460 [19]): 340 nM
- GI50 [20]: 236 nM
- GI50 [21]: 287 nM
- GI50 (KM12): 203 nM
- GI50 (M14): 232 nM
- GI50 (SK-MEL-2): 352 nM
- GI50 (SK-MEL-28): 320 nM
- GI50 [22]: 672 nM
- GI50 [23]: 249 nM
- GI50 [24]: 1450 nM
- GI50 [25]: 418 nM
- GI50 [26]: 306 nM
- GI50 [27]: 566 nM
- GI50 [28]: 465 nM
- GI50 [29]: 725 nM
- GI50 (ACHN [30]): 1050 nM
- GI50 [31]: 3610 nM
- GI50 [32]: 218 nM
- GI50 [33]: 193 nM
- inhibition of growth at 10 µM (A549): 83%
- inhibition of growth at 10 µM (NCI-H460 [15]): 96%
- inhibition of growth at 10 µM (NCI-H522): 100%
- inhibition of growth at 10 µM [16]: 100%
